The values that follow are results of earlier work, collected in paper PMC10615786 (Cell, 2023).

In data set [1] the test system is ROS level. The conditions noted are these: general statement, no data or reference printed.
Data set [2] has as its system LRX3. The conditions noted are these: modulates salt tolerance.
For data set [3], the system named is LRX4. To be noted: modulates salt tolerance.

Consider `c1ccc2c(c1)[I+]c1ccccc1-2` [DPI], for which, in data set [1], the “ROS levels in vivo” value is reported as “lower ROS levels in vivo”.

Take “sRALF23: stigma-expressing RALF peptide (ATRRYISYGALRRNTIPCSRRGASYYNCRRGAQANPYSRGCSAITRCRRS; UniProt Q9LUS7 89-138, looked up)”: in data set [2], the “binding to LRX3” value was “bind to LRX3 and LRX4”. In addition, the “binding to LRX4” value in data set [3] was “bind to LRX3 and LRX4”.
